Assay results reported in ChEMBL document CHEMBL4507325 (2021).

Assays:
Details in all cases: Compound concentration 10.0 uM
[1] = target: Sigma non-opioid intracellular receptor 1 (Homo sapiens) (UniProt Q99720)
[2] = target: Estrogen receptor (Homo sapiens) (UniProt P03372)
[3] = target: 5-hydroxytryptamine receptor 1E (Homo sapiens) (UniProt P28566)
[4] = target: Motilin receptor (Homo sapiens) (UniProt O43193)
[5] = target: Alpha-1B adrenergic receptor (Homo sapiens) (UniProt P35368)
[6] = target: Type-1 angiotensin II receptor (Homo sapiens) (UniProt P30556)
[7] = target: GABA-A receptor; anion channel (Rattus norvegicus) (UniProt O09028+P15431+P18506+P18508+P19969+P20236+P23574+P23576+P28471+P28473+P30191+P62813+P63079+P63138+Q91ZM7+Q9ES14)
[8] = target: 5-hydroxytryptamine receptor 2B (Homo sapiens) (UniProt P41595)

Measured: inhibition

Chain of 5-hydroxytryptamine receptor 1E (Homo sapiens) (P28566 whole entry): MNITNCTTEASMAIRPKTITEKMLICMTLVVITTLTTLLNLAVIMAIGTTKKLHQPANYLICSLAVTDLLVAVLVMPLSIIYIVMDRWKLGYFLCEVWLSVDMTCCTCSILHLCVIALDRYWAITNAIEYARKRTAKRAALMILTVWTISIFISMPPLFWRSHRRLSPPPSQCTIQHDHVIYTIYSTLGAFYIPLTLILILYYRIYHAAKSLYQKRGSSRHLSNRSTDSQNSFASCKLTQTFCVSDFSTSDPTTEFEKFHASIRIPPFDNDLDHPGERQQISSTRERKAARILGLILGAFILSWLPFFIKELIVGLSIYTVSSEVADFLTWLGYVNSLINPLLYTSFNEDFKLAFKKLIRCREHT
Chain of Alpha-1B adrenergic receptor (Homo sapiens) (P35368 whole entry): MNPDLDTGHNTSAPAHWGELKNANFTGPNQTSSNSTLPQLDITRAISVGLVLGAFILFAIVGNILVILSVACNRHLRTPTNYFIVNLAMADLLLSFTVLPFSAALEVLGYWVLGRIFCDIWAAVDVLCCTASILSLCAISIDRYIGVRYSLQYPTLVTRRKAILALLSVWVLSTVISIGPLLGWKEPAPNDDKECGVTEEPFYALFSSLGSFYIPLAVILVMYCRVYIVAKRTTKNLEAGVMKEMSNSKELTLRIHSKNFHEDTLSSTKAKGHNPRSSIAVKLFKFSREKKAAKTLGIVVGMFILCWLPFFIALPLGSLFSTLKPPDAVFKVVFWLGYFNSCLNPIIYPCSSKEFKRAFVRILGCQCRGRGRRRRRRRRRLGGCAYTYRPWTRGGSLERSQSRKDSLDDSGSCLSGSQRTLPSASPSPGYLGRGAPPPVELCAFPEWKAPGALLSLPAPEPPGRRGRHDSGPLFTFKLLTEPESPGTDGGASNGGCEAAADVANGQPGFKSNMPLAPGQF
Chain of Type-1 angiotensin II receptor (Homo sapiens) (P30556 whole entry): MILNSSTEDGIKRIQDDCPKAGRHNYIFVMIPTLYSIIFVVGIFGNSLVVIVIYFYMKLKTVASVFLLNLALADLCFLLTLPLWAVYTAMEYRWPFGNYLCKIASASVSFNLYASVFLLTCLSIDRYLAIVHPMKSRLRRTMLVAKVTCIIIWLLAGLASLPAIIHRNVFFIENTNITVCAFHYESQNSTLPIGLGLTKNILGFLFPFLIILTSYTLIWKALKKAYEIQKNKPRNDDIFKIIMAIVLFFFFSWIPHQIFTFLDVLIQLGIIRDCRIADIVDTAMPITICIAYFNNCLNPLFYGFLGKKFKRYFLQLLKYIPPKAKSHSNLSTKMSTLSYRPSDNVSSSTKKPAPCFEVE
Chain of 5-hydroxytryptamine receptor 2B (Homo sapiens) (P41595 whole entry): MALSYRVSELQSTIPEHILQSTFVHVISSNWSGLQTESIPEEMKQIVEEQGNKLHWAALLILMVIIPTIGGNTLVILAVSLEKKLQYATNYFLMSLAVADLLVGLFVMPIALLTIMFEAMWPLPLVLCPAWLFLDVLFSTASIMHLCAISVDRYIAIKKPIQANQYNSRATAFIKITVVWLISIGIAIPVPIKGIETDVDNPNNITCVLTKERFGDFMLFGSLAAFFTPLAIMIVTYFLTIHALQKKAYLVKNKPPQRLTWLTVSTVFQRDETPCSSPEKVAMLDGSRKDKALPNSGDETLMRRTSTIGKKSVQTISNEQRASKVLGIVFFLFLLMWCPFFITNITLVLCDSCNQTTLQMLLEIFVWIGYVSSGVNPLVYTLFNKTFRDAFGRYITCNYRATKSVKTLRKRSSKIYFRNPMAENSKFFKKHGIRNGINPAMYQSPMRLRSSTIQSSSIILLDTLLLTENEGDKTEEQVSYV
Chain of Motilin receptor (Homo sapiens) (O43193 whole entry): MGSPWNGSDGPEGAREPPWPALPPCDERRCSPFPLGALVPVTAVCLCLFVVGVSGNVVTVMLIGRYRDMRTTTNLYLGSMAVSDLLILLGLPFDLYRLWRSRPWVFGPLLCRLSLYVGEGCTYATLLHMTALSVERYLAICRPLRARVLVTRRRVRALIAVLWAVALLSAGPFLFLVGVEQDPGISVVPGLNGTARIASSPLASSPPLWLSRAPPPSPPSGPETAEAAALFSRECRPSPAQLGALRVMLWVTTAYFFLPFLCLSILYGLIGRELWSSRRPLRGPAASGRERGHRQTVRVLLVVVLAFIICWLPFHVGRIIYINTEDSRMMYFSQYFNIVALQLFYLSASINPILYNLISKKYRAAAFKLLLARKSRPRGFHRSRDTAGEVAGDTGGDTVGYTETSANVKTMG
Chain of Estrogen receptor (Homo sapiens) (P03372 whole entry): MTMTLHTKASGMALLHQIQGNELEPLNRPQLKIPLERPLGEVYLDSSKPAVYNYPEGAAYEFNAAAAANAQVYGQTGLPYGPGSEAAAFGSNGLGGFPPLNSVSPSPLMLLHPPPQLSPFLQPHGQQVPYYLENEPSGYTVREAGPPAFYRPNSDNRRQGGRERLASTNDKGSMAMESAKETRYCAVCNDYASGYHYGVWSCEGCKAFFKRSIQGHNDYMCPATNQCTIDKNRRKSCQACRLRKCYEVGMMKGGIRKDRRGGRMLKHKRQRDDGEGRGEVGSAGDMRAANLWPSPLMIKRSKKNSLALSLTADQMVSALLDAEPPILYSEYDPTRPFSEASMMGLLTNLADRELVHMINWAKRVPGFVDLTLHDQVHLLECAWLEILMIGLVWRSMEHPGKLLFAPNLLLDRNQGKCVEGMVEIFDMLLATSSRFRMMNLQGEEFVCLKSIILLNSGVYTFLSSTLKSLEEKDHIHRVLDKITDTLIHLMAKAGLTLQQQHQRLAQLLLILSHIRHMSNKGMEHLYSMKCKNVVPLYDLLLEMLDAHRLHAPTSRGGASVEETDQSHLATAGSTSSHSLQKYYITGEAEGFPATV
Chain of Sigma non-opioid intracellular receptor 1 (Homo sapiens) (Q99720 whole entry): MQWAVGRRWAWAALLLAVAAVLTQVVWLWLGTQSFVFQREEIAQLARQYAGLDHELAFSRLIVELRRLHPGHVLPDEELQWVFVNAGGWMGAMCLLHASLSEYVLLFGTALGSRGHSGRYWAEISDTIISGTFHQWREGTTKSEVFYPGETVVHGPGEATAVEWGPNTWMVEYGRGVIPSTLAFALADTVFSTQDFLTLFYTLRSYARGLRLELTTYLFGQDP

Cc1ccccc1Oc1cc(-n2c(=O)cc(C(F)(F)F)[nH]c2=O)c2ccccc2c1Cl [BAY-069]
inactive: [1] 19% | [2] 6% | [3] 4.31% | [4] 4% | [5] 19.3% | [6] 7% | [7] 16.3% | [8] 1%
